# Measured values reported in patent USRE41784E1, “Adhesive material” (Sony Corporation, priority 2000, dated 2010).
# Where two headings read alike, the source gives them in different places.
# How the values were obtained:
# skin of rabbits [1] = test: Draize test (skin irritation, PII value); conditions: for PII value: preferred acrylic/methacrylic acid esters; for PH value: starting material (component) of the adhesive materials
# Text: (§1) The PII, or skin irritation, value is a skin toxicity index measured in accordance with the method defined by the Consumer Product Safety Commission of the USA (Draize Method; The Consumer Product Safely Commission of the USA, the Code of Federal Regulations, Title 16, Section 1500.41). A lower index corresponds to less pronounced skin irritation.
# (§2) Hair was removed with the aid of an electric hair clipper from the lumbar regions of six healthy rabbits (body weight: 2.0-4.0 kg) to expose the skin over an area of about 10 cm^2. The skin on the right side of the vertebra was incised with a surgical knife over an area of 2.5 cm^2, creating a lesion. The skin on the left side of the vertebra was left intact, and pads obtained by applying 0.5 mL samples were affixed at two locations on the right and left of the vertebra. The pads were peeled off 24 and 72 hours following affixation, redness and swelling were visually observed, the results were graded using a five-point system (levels 0 to 4), a gross mean was obtained using the average values for each rabbit, and the gross mean value was termed the PII value.
# [2] = test system: mutant strain (his−) of Salmonella requiring histidine; conditions: starting material (component) of the adhesive materials
# Method: The Ames test referred to herein is also known as a mutagenicity test, and is one of tests in which bacteria are used to screen chemical substances for carcinogenicity or mutagenicity. […] This mutation is the result of DNA damage, and carcinogenicity is believed to become more pronounced with increased ease of mutation. Consequently, an adhesive material having high biological safety must give a negative result of the Ames test.
# This test was performed using direct reverse mutation of a mutant strain (his−) of Salmonella requiring histidine to a non-requiring strain (his+) under the action of a test substance. A specific test method involved preparing histidine-free media to which a metabolically active substance (S9) bad been added, and histidine-free media devoid of the metabolically active substance (S9). The test substance was admixed into these media, a strain (his−) requiring histidine was cultured, and the bacterial colony count of a medium containing the test substance was compared with the bacterial colony count of a medium devoid of the substance. If the first value was greater than the second, the test result was concluded to be positive, otherwise the result was concluded to be negative.
# skin of rabbits [3] = conditions: rabbit, in vivo
# Text: as §1, §2
compound,measurement,setting,value
"1,3-butanediol methacrylate",PII value,skin of rabbits [1],0.0
C=C(C)C(=O)OCC(C)O (centres unmarked) [2-hydroxypropyl methacrylate],PII value,skin of rabbits [1],0.0
C=C(C)C(=O)OCC(C)(C)COC(=O)C(=C)C [Neopentyl glycol dimethacrylate],PII value,skin of rabbits [1],0.0
same,PH value,skin of rabbits [1],0.0
same,Mutagenicity,[2],negative
C=CC(=O)OCCOc1ccccc1 [Phenoxyethyl acrylate],PH value,skin of rabbits [1],1.5
C=C(C)C(=O)OCCO [hydroxyethyl methacrylate],PII value,skin of rabbits [1],0.0
Polypropylene glycol diacrylate,Mutagenicity,[2],negative
same,PH value,skin of rabbits [3],0.0
same,PII value,skin of rabbits [3],0.0
ditrimethylol propane tetraacrylate,PII value,skin of rabbits [1],0.0
